Test results from ChEMBL document CHEMBL1201862, “PubChem BioAssay data set” (2004).
The source made the active and inactive calls. For most assays here, no stated cut-off is given here; in the data, actives have a measured EC50 and inactives only a lower limit.

Legend:
[1] = biological target: T1, Heat shock 70 kDa protein 1A (Homo sapiens, UniProt P0DMV8); experiment: Hsp70 inhibitors, biochemical, TR-FRET (AID 786)
[2] = biological target: T1, Heat shock 70 kDa protein 1A; experiment: Hsp70 inhibitors, probe displacement, primary screen, biochemical, fluorescence polarization (AID 583)
[3] = Luminescence Cell-Based Dose Retest to Confirm Inhibitors of Cancer Stem Cells. [Related pubchem assays (depositor defined):AID2717, AID2721]; format: functional; settings: Homo sapiens
[4] = system: Streptococcus sp. 'group A'; experiment: growth inhibition of control SK(-) GAS strain, dose response, counter-screen for streptokinase expression inhibitor project, luminescence, kanamycin, BacTiterGlo, confirmation (AID 1900); format: functional, organism-based
Streptococcus [5] = experiment: Luminescence Microorganism-Based Dose Response Follow up to Identify Compounds Cytotoxic to Streptococcus. [Related pubchem assays: 1677 (Project Summary), 1915, 1914, 1902 (Retest at Dose), 1900 (Counter Screen), 1662 (Primary HTS)]; format: functional, organism-based
Streptokinase A = biological target: T2, Streptokinase A (Streptococcus pyogenes serotype M1, UniProt P10520); experiment: S. pyogenes streptokinase expression inhibitors, potency, dose response, plasminogen activation absorbance, OD405 (AID 1914); format: functional, Streptococcus pyogenes M1 GAS;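 further: secreted streptokinase activity via plasminogen activation per viability signal from cell pellet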
T2 sequence (P10520 whole entry): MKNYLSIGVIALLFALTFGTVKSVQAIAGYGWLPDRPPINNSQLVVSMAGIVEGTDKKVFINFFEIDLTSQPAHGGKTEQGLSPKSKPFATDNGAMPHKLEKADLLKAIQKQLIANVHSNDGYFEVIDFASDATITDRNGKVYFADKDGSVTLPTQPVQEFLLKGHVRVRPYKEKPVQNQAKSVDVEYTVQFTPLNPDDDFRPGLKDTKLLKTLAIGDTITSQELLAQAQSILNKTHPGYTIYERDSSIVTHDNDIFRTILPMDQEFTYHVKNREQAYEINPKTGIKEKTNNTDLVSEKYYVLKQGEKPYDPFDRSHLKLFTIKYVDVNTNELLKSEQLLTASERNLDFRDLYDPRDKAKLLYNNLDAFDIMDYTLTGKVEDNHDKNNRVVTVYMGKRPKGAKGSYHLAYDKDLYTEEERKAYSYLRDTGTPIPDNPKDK

Streptococcus [6] = experiment: Group A Streptococcus viability loss, dose response, counter-screen for streptokinase expression inhibitor project, luminescence, BacTiterGlo (AID 1915); format: functional, organism-based;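 further: potency for reduction of bacterial viability or growth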
[7] = biological target: Serine/threonine-protein phosphatase PP1-alpha catalytic subunit (Homo sapiens, UniProt P62136); experiment: PP1 phosphatase inhibitors, dose response, biochemical, fluorescence (AID 2403);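 further: phosphatase turnover of OMFP into fluorescent 3-O-methylfluorescein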
[8] = biological target: Serine/threonine-protein phosphatase (Homo sapiens, UniProt Q9BPW0); experiment: Counterscreen for inhibitors of PP1: fluorescence-based biochemical high throughput dose response assay to identify inhibitors of Protein Phosphatase 5 (PP5). [Related pubchem assays: 2034 (Summary (PP5 inhibitors)), 1987 (PP5 inhibitors in singlate), 2235 (PP1 inhibitors in singlate)]
[9] = inhibitors of firefly luciferase expression or activity, dose response, H4 neuroglioma cells, luminescence (AID 1990); format: functional, cell-based
[10] = biological target: T3, Neuropeptide Y receptor type 1 (Homo sapiens, UniProt P25929); format: functional;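 further: HEK293 cells with a CNG channel challenged with NPY then isoproterenol; potency as antagonist that reverses NPY suppression of cAMP signal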
T3 sequence (P25929 whole entry): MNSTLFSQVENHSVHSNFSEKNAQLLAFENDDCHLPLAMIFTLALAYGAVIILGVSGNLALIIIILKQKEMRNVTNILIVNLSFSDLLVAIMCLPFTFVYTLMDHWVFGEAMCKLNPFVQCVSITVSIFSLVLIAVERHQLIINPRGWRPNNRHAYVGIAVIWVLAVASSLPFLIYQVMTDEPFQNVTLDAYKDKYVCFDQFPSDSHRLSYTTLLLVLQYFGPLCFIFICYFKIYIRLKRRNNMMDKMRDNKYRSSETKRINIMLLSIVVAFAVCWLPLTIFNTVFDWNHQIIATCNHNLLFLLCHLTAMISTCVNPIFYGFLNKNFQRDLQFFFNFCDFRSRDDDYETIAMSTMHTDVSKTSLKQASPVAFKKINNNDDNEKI

[11] = Luminescence Cell-Based Dose Response HTS to Identify Inhibitors of 5'UTR Stem-Loop Driven Prion Protein mRNA Translation in H4 Neuroglioblastoma Cells. [Related pubchem assays: 1827 (Project Summary), 1813 (Primary HTS)]; format: functional
[12] = inhibitors of SNCA 5'UTR-driven reporter translation, confirmation, H4 neuroglioma cells, luminescence (AID 1988); format: functional, cell-based
[13] = inhibitors of intracellular T. cruzi replication, confirmation, NIH3T3 host cells, beta-gal luminescence (AID 2044); format: functional, cell-based;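 further: intracellular parasites grown in NIH/3T3 mouse fibroblasts as host cells; luminescent beta-galactosidase reporter signal from transgenic T. cruzi replicating inside host cells; inhibitors lower the luminescence signal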
[14] = biological target: T4, Neuropeptide Y receptor type 2 (Homo sapiens, UniProt P49146); format: functional, cell-based;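 further: HEK293 cells expressing the receptor and a CNG channel; stimulus was NPY near EC95 followed by isoproterenol to raise cAMP; antagonist potency measured as restoring cAMP signal that NPY suppresses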
T4 sequence (P49146 whole entry): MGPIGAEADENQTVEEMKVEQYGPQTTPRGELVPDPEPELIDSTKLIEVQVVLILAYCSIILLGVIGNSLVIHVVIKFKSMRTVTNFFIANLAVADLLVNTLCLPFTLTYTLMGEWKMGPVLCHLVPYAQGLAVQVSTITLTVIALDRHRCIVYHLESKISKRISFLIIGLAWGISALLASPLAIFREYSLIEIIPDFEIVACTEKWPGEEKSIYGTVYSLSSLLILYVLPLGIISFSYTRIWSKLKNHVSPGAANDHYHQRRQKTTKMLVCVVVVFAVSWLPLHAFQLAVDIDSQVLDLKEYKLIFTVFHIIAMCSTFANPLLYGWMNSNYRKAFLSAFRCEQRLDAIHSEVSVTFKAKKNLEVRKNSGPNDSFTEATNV

[15] = cytotoxicity toward NIH3T3 fibroblasts, dose response, counter-screen, cell-based, ATP luminescence, mouse fibroblasts (AID 2010); format: functional;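 further: cells exposed to compound for about 90 hours before reading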
[16] = biological target: G2/mitotic-specific cyclin-B1 (Homo sapiens, UniProt P14635); experiment: Counterscreen assay for inhibitors of Wee1 degradation: dose response cell-based assay to identify inhibitors of cyclin B degradation. [Related pubchem assays: 1410, 1321 ]; format: functional
BJ [17] = experiment: cytotoxicity toward BJ-TERT fibroblasts, dose response, cell-based, RAS-independent, luminescence (AID 1933); format: functional; settings: Homo sapiens
Wee1-like protein kinase = Wee1-like protein kinase (Homo sapiens, UniProt P30291); experiment: Dose Response Cell-based Assay for Inhibitors of Wee1 Degradation. [Related pubchem assays: 1410, 1321 ]; format: functional
[18] = biological target: T5, Voltage-gated N-type calcium channel alpha-1B subunit/Amyloid beta A4 precursor protein-binding family A member 1 (Homo sapiens, UniProt Q00975+Q02410); format: protein assay
BJ [19] = experiment: cells; format: functional, cell-based; settings: Homo sapiens
[20] = Luminescence-based counterscreen assay for KLF5 inhibitors: dose response cell-based high throughput screening assay to identify cytotoxic compounds using the IEC-6 intestinal epithelial cell line. [Related pubchem assays: 1700 (Primary screen.), 1834 (Confirmation screen.), 1858 (Summary AID.), 1905 (Counterscreen.)]; format: functional
[21] = biological target: T5, Voltage-gated N-type calcium channel alpha-1B subunit/Amyloid beta A4 precursor protein-binding family A member 1; format: protein assay; remark: listed apart in the source
BJ [22] = experiment: cytotoxicity toward BJ-TERT-LT-ST fibroblasts, dose response, cell-based, RAS-independent, luminescence (AID 1935); format: functional; settings: Homo sapiens;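 further: BJ fibroblasts immortalized with TERT plus LT and ST oncogenes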
[23] = cytotoxicity toward DRD oncogenic fibroblasts, dose response, cell-based, non-viral oncogenic, luminescence (AID 1934); format: functional; settings: Homo sapiens
BJ [24] = experiment: cytotoxicity toward Ras-transformed BJeLR fibroblasts, dose response, cell-based, alamar blue fluorescence, cherrypicked samples (AID 2631); format: functional; settings: Homo sapiens;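 further: confirmatory dose-response assay in RAS-dependent BJ fibroblasts engineered with TERT, LT and ST, with cytotoxicity read by fluorescence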
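Wherever AC50 is given: cells exposed to compound for roughly 70 hours or longer before luminescence read.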

T5 sequence (Q00975 whole entry): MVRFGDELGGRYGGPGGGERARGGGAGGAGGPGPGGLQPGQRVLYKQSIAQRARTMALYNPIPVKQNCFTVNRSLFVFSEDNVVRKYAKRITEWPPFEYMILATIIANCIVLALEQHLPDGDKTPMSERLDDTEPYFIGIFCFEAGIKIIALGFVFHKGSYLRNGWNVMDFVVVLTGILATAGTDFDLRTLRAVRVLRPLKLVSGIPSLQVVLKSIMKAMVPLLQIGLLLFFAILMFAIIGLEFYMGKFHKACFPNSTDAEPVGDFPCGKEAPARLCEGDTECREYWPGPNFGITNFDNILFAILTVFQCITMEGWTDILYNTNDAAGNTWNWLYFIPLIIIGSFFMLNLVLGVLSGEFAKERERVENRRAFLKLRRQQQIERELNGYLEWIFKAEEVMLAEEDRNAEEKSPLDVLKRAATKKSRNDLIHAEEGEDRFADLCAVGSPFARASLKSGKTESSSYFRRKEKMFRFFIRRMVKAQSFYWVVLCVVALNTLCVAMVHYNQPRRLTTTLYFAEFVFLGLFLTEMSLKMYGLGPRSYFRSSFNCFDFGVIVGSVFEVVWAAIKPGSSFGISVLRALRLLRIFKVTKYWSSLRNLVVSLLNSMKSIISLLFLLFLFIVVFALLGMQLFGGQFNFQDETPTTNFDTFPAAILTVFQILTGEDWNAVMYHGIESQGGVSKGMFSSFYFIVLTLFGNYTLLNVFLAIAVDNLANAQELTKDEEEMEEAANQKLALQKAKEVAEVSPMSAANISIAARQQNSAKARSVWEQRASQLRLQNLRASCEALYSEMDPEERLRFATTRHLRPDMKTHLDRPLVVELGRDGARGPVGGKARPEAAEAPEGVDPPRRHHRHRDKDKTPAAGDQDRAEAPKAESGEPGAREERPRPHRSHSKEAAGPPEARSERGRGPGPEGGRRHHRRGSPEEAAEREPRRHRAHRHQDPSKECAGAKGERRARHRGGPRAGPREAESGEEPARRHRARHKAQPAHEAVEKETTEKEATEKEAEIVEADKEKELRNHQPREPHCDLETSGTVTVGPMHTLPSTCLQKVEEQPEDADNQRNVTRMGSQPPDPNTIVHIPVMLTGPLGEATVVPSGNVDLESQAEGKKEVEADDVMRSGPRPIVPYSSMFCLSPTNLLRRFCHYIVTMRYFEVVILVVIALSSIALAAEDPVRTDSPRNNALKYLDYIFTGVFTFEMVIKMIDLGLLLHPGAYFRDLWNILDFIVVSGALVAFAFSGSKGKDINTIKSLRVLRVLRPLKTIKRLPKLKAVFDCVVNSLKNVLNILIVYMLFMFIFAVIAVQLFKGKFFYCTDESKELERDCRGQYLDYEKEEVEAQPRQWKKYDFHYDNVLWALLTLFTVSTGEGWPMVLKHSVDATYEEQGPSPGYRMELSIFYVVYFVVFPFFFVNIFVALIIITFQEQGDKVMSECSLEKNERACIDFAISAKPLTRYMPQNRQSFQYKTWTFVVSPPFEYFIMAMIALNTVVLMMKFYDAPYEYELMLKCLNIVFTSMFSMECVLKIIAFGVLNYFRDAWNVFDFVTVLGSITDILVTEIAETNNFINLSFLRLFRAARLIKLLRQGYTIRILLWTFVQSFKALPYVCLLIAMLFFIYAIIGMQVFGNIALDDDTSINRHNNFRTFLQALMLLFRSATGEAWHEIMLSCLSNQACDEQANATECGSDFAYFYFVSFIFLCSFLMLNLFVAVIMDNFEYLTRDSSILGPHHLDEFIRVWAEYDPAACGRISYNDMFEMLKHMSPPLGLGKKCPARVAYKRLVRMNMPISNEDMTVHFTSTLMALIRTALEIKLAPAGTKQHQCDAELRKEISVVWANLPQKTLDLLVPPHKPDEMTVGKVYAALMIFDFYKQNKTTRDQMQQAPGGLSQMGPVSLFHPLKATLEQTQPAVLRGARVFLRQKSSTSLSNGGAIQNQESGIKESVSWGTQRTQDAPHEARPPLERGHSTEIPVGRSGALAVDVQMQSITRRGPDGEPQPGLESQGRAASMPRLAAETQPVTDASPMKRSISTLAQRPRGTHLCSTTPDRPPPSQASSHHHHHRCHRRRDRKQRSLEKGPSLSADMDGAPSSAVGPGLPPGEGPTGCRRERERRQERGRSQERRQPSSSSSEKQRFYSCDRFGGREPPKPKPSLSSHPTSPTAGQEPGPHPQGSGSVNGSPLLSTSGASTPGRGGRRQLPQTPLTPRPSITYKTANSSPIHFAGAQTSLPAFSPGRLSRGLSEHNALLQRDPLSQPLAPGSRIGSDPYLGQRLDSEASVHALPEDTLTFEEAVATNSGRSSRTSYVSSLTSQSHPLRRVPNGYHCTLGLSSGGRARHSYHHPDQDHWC
T5 sequence (Q02410 whole entry): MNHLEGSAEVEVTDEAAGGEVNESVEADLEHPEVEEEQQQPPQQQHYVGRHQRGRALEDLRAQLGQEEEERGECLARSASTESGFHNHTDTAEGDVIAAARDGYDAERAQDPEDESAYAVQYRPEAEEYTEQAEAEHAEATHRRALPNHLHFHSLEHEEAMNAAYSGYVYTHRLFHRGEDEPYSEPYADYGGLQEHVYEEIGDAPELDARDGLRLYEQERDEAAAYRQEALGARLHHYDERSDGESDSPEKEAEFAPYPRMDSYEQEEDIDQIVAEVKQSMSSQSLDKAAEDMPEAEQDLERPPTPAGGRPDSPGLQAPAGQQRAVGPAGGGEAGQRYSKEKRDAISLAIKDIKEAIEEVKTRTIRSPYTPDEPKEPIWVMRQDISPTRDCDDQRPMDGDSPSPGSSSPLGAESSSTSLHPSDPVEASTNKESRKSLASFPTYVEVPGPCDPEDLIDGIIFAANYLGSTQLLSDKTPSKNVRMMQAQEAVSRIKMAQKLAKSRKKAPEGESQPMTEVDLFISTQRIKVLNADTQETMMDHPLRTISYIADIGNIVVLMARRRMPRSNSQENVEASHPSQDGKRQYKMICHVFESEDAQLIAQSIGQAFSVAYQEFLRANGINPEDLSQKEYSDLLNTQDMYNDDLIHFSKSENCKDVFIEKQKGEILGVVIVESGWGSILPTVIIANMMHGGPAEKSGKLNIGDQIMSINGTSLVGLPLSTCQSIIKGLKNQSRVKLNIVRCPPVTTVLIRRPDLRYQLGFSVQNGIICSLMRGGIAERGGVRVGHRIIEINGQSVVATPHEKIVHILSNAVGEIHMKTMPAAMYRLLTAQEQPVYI
T1 sequence (P0DMV8 whole entry): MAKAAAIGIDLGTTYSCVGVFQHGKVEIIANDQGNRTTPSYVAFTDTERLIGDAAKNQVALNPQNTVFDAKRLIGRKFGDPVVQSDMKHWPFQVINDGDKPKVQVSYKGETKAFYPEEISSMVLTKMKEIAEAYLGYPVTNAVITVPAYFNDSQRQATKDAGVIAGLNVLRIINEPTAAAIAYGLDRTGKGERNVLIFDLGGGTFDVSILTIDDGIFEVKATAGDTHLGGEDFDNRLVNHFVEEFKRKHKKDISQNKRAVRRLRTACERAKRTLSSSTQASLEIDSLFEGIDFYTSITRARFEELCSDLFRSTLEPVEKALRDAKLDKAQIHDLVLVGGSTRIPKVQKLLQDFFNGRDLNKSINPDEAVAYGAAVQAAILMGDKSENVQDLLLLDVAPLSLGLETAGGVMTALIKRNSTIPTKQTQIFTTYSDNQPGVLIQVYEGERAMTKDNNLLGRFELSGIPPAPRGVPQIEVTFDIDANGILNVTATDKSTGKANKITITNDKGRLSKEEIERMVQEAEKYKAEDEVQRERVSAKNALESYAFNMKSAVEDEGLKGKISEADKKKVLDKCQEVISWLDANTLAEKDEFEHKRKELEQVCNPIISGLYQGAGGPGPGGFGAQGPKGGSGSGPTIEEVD
Sequence of Serine/threonine-protein phosphatase (Q9BPW0 whole entry): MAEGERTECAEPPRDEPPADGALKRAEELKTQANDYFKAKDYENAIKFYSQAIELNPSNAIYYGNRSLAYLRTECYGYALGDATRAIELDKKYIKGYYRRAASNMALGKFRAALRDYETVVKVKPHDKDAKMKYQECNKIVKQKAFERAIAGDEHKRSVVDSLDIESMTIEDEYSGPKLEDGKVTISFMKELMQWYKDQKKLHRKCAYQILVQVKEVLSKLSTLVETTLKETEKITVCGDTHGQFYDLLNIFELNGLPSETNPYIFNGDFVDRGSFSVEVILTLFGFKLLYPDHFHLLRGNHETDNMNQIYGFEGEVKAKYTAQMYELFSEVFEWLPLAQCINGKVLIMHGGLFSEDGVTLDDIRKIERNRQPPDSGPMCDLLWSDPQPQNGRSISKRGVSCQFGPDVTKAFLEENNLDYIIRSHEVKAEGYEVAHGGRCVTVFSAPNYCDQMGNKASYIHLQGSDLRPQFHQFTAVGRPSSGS
Sequence of Wee1-like protein kinase (P30291 whole entry): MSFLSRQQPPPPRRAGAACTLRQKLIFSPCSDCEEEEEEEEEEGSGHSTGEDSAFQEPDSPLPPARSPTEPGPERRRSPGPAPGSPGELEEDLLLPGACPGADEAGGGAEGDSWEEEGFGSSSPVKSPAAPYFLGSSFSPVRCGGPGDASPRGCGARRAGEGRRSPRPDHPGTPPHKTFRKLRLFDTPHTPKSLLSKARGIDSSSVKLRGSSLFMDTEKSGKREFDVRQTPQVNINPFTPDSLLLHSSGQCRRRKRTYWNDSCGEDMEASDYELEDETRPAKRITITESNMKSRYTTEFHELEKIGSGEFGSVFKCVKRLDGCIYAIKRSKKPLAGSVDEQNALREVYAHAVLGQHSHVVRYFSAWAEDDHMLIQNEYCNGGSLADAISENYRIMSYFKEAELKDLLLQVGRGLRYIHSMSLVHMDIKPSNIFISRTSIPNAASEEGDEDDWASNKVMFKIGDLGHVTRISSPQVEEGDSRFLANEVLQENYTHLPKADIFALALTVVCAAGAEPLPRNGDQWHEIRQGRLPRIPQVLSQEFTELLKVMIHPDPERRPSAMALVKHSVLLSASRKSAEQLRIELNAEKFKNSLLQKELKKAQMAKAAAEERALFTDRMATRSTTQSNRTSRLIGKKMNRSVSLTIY

CCCc1cc(SCC(=O)Nc2c(C)n(C)n(-c3ccccc3)c2=O)n2c(nc3ccccc32)c1C#N
IC50 [1]: > 100 µM (not active)
IC50 [2]: > 100 µM (not active)
AC50 [3]: > 195 µM (inactive)

Cc1ccc(/C=C/c2ccc(=O)n(Cc3ccccc3Cl)n2)cc1
EC50 [4]: 6.69 µM (active)
EC50 (Streptococcus [5]): 10.7 µM (active)
EC50 (Streptokinase A): 10.2 µM (active)
EC50 (Streptococcus [6]): > 50 µM (not active)

O=C(O)c1cc(-c2ccc(Cl)cc2)n(-c2cccc(Cl)c2)n1
IC50 [7]: 8.1 µM (active)
IC50 [8]: > 67 µM (not active)

CCOc1ccc(-n2cc(C(=O)Nc3cccc(Cl)c3)c3cc(OC)c(OC)cc3c2=O)cc1
EC50 [9]: 21.5 µM (active)
IC50 [10]: > 35 µM (not active)
EC50 [11]: > 120 µM (not active)
EC50 [12]: > 120 µM (not active)
EC50 [13]: 3.7 µM (active)
IC50 [14]: > 35 µM (not active)
EC50 [15]: > 60 µM (not active)

Cc1nc2ccccn2c1-c1csc(Nc2cccc(O)c2)n1
EC50 [16]: > 49.7 µM (not active)
EC50 (BJ [17]): 7.42 µM (active)
EC50 (Wee1-like protein kinase): > 49.7 µM (not active)
IC50 [18]: 10 µM (active)
EC50 (BJ [19]): 82.4 µM (inconclusive)
IC50 [20]: > 13.3 µM (not active)
IC50 [21]: > 50 µM (inactive)
EC50 (BJ [22]): 1.55 µM (inconclusive)
EC50 [23]: 1.96 µM (active)
EC50 (BJ [24]): 0.205 µM (active)
